This note sets out measurements from US8158792B2, “Spiropiperidines for use as tryptase inhibitors” (Janssen Pharmaceutica N.V., priority 2007, dated 2012).

For this test, the target named is human lung tryptase. Briefly: β-Tryptase In-Vitro Enzyme Assay. The class given is biochemical. The settings on record: human lung tryptase 1 nM, substrate H-D-HHT-Ala-Arg-pNa 500 μM, pH 7.4, room temperature. On the procedure: The β-tryptase assay was conducted with human lung tryptase (Cortex Biochem #CP3033) in an aqueous buffer (10 mM Tris, 10 mM Hepes, 150 mM NaCl, 0.1% PEG 8000, pH 7.4) using the chromogenic substrate H-D-HHT-Ala-Arg-pNa. […] Percent inhibition was calculated by comparing the initial reaction velocity of samples without inhibitor to those with inhibitor. The initial reaction velocities were analyzed using Microsoft Excel.

`NCc1ccc2c(c1)C1(CCN(C(=O)c3ccc(-c4ccccc4)s3)CC1)CO2` [Cpd 114, 1-(5-phenyl-thien-2-yl)carbonyl-5′-aminomethyl-spiro[piperidine-4,3′-(2H)-benzo[b]furan]]: the IC50 (as a rule, the concentration needed to halve the response being measured) turned out to be 0.24 µM.

Regarding `NCc1ccc2c(c1)C1(CCN(C(=O)c3cccc(Oc4ccccc4)c3)CC1)CO2` [Cpd 115, 1-(3-phenoxy-phenyl)carbonyl-5′-aminomethyl-spiro[piperidine-4,3′-(2H)-benzo[b]furan]], half-maximal inhibition (IC50) was put at 0.24 µM.

Regarding `NCc1ccc2c(c1)C1(CCN(C(=O)/C=C/c3ccc(Cl)c(Cl)c3)CC1)CO2` [Cpd 116, (E)-1-(3,4-dichloro-phenylethenyl)carbonyl-5′-aminomethyl-spiro[piperidine-4,3′-(2H)-benzo[b]furan]], 0.29 µM corresponded to half-maximal inhibition (IC50).

Consider `NCc1ccc2c(c1)C1(CCN(C(=O)/C=C/c3ccc(-c4ccccc4)cc3)CC1)CO2` [Cpd 117, (E)-1-(4-phenyl-phenylethenyl)carbonyl-5′-aminomethyl-spiro[piperidine-4,3′-(2H)-benzo[b]furan]], for which half-maximal inhibition (IC50) required 0.6 µM.

The molecule `Cc1nc(C)c(C(=O)N2CCC3(CC2)COc2ccc(CN)cc23)s1` [Cpd 118, 1-(2,4-dimethyl-thiazol-5-yl)carbonyl-5′-aminomethyl-spiro[piperidine-4,3′-(2H)-benzo[b]furan]] showed an IC50 of 0.11 µM.

Take `Cc1ccc2nc(C(=O)N3CCC4(CC3)COc3ccc(CN)cc34)cn2c1` [Cpd 119, 1-(6-methyl-imidazo[1,2-a]pyridin-2-yl)carbonyl-5′-aminomethyl-spiro[piperidine-4,3′-(2H)-benzo[b]furan]]: inhibition was half-maximal at 1.4 µM (IC50).

The molecule `NCc1ccc2c(c1)C1(CCN(C(=O)c3ccc(-c4ccccn4)s3)CC1)CO2` [Cpd 120, 1-(5-pyridin-2-yl-thien-2-yl)carbonyl-5′-aminomethyl-spiro[piperidine-4,3′-(2H)-benzo[b]furan]] had an IC50 of 0.13 µM.

In turn, `NCc1ccc2c(c1)C1(CCN(C(=O)c3csc(-c4cccnc4)n3)CC1)CO2` [Cpd 121, 1-(2-pyridin-3-yl-thiazol-4-yl)carbonyl-5′-aminomethyl-spiro[piperidine-4,3′-(2H)-benzo[b]furan]] displayed an IC50 of 0.51 µM.

`NCc1ccc2c(c1)C1(CCN(C(=O)c3csc(-c4ccncc4)n3)CC1)CO2` [Cpd 122, 1-(2-pyridin-4-yl-thiazol-4-yl)carbonyl-5′-aminomethyl-spiro[piperidine-4,3′-(2H)-benzo[b]furan]]: the midpoint of inhibition, the IC50, lay at 0.76 µM.

On to `Cc1nc(-c2ccccc2)sc1C(=O)N1CCC2(CC1)COc1ccc(CN)cc12` [Cpd 123, 1-(2-phenyl-4-methyl-thiazol-5-yl)carbonyl-5′-aminomethyl-spiro[piperidine-4,3′-(2H)-benzo[b]furan]], for which the IC50 was found to be 0.69 µM.

`Cc1nc(-c2cccnc2)sc1C(=O)N1CCC2(CC1)COc1ccc(CN)cc12` [Cpd 124, 1-(2-pyridin-3-yl-4-methyl-thiazol-5-yl)carbonyl-5′-aminomethyl-spiro[piperidine-4,3′-(2H)-benzo[b]furan]] registered a 50% inhibitory concentration (IC50) of 1.1 µM.

`Cc1ccc(-c2nc(C)c(C(=O)N3CCC4(CC3)COc3ccc(CN)cc34)s2)cc1` [Cpd 125, 1-[2-(4-methyl-phenyl)-4-methyl-thiazol-5-yl]carbonyl-5′-aminomethyl-spiro[piperidine-4,3′-(2H)-benzo[b]furan]]: the 50% inhibitory concentration (IC50) stood at 7.5 µM.

In turn, `NCc1ccc2c(c1)C1(CCN(C(=O)c3ccc4cc(Br)ccc4c3)CC1)CO2` [Cpd 126, 1-(6-bromo-naphthalen-2-yl)carbonyl-5′-aminomethyl-spiro[piperidine-4,3′-(2H)-benzo[b]furan]] came in with an IC50 of 0.15 µM.

Consider `Cn1nc(C(F)(F)F)cc1-c1ccc(C(=O)N2CCC3(CC2)COc2ccc(CN)cc23)s1` [Cpd 127, 1-[5-(1-methyl-3-trifluoromethyl-pyrazol-5-yl)-thien-2-yl]carbonyl-5′-aminomethyl-spiro[piperidine-4,3′-(2H)-benzo[b]furan]], for which the IC50 was 3.7 µM.

As for `Cc1nc(-c2ccc(C(F)(F)F)cc2)sc1C(=O)N1CCC2(CC1)COc1ccc(CN)cc12` [Cpd 128, 1-[2-(4-trifluoromethyl-phenyl)-4-methyl-thiazol-5-yl]carbonyl-5′-aminomethyl-spiro[piperidine-4,3′-(2H)-benzo[b]furan]], the IC50 amounted to 0.17 µM.

Molecule `NCc1ccc2c(c1)C1(CCN(C(=O)c3ccc(-c4cc(C(F)(F)F)ccc4Cl)o3)CC1)CO2` [Cpd 129, 1-[5-(2-chloro-5-trifluoromethyl-phenyl)-furan-2-yl]carbonyl-5′-aminomethyl-spiro[piperidine-4,3′-(2H)-benzo[b]furan]] displayed an IC50 of 0.099 µM.

For `NCc1ccc2c(c1)C1(CCN(C(=O)c3ccc(-c4ccccc4)o3)CC1)CO2` [Cpd 130, 1-(5-phenyl-furan-2-yl)carbonyl-5′-aminomethyl-spiro[piperidine-4,3′-(2H)-benzo[b]furan]], half-maximal inhibition (IC50) was put at 0.028 µM.

For `Cc1ccc(-c2ccc(C(=O)N3CCC4(CC3)COc3ccc(CN)cc34)o2)cc1` [Cpd 131, 1-[5-(4-methyl-phenyl)-furan-2-yl]carbonyl-5′-aminomethyl-spiro[piperidine-4,3′-(2H)-benzo[b]furan]], inhibition was half-maximal at 0.072 µM (IC50).

Molecule `COc1ccc(-c2ccc(C(=O)N3CCC4(CC3)COc3ccc(CN)cc34)o2)cc1` [Cpd 132, 1-[5-(4-methoxy-phenyl)-furan-2-yl]carbonyl-5′-aminomethyl-spiro[piperidine-4,3′-(2H)-benzo[b]furan]] returned an IC50 of 0.026 µM.

`CC(C)(C)c1cc(C(=O)N2CCC3(CC2)COc2ccc(CN)cc23)cc(C(C)(C)C)c1` [Cpd 133, 1-(3,5-di-tert-butyl-phenyl)carbonyl-5′-aminomethyl-spiro[piperidine-4,3′-(2H)-benzo[b]furan]]: the IC50 stood at 0.081 µM.

In the case of `NCc1ccc2c(c1)C1(CCN(C(=O)c3ccc(COc4cccc(Cl)c4)o3)CC1)CO2` [Cpd 134, 1-[5-(3-chloro-phenoxymethyl)-furan-2-yl]carbonyl-5′-aminomethyl-spiro[piperidine-4,3′-(2H)-benzo[b]furan]], the IC50 worked out at 0.076 µM.

`NCc1ccc2c(c1)C1(CCN(C(=O)c3ccc(-c4cccc(C(F)(F)F)c4)o3)CC1)CO2` [Cpd 135, 1-[5-(3-trifluoromethyl-phenyl)-furan-2-yl]carbonyl-5′-aminomethyl-spiro[piperidine-4,3′-(2H)-benzo[b]furan]]: the IC50 was determined as 0.33 µM.

The molecule `NCc1ccc2c(c1)C1(CCN(C(=O)c3ccc(-c4ccc(Cl)cc4Cl)o3)CC1)CO2` [Cpd 136, 1-[5-(2,4-dichloro-phenyl)-furan-2-yl]carbonyl-5′-aminomethyl-spiro[piperidine-4,3′-(2H)-benzo[b]furan]] registered an IC50 of 0.025 µM.

`NCc1ccc2c(c1)C1(CCN(C(=O)c3ccc(-c4cc(Cl)ccc4Cl)o3)CC1)CO2` [Cpd 137, 1-[5-(2,5-dichloro-phenyl)-furan-2-yl]carbonyl-5′-aminomethyl-spiro[piperidine-4,3′-(2H)-benzo[b]furan]] displayed an IC50 of 0.053 µM.

Molecule `NCc1ccc2c(c1)C1(CCN(C(=O)c3ccc(-c4ccc(Cl)c(Cl)c4)o3)CC1)CO2` [Cpd 138, 1-[5-(3,4-dichloro-phenyl)-furan-2-yl]carbonyl-5′-aminomethyl-spiro[piperidine-4,3′-(2H)-benzo[b]furan]] returned an IC50 of 0.14 µM.

With `Cc1cc(OCc2ccc(C(=O)N3CCC4(CC3)COc3ccc(CN)cc34)o2)ccc1Cl` [Cpd 139, 1-[5-(3-methyl-4-chloro-phenoxymethyl)-furan-2-yl]carbonyl-5′-aminomethyl-spiro[piperidine-4,3′-(2H)-benzo[b]furan]], the IC50 came to 0.087 µM.

The molecule `NCc1ccc2c(c1)C1(CCN(C(=O)c3ccc(-c4ccc(Br)cc4)o3)CC1)CO2` [Cpd 140, 1-[5-(4-bromo-phenyl)-furan-2-yl]carbonyl-5′-aminomethyl-spiro[piperidine-4,3′-(2H)-benzo[b]furan]] came in with an IC50 of 0.04 µM.

Consider `NCc1ccc2c(c1)C1(CCN(C(=O)c3cncc(-c4ccccc4)c3)CC1)CO2` [Cpd 142, 1-(5-phenyl-pyridin-3-yl)carbonyl-5′-aminomethyl-spiro[piperidine-4,3′-(2H)-benzo[b]furan]], for which the IC50 was found to be 0.65 µM.

Consider `NCc1ccc2c(c1)C1(CCN(C(=O)c3cncc(-c4cccs4)c3)CC1)CO2` [Cpd 143, 1-(5-thien-2-yl-pyridin-3-yl)carbonyl-5′-aminomethyl-spiro[piperidine-4,3′-(2H)-benzo[b]furan]], for which the IC50 is 0.056 µM.

Molecule `COc1cccc(-c2ccc(C(=O)N3CCC4(CC3)COc3ccc(CN)cc34)o2)c1` [Cpd 144, 1-[5-(3-methoxy-phenyl)-furan-2-yl]carbonyl-5′-aminomethyl-spiro[piperidine-4,3′-(2H)-benzo[b]furan]] gave a half-maximal inhibitory concentration (IC50) of 0.03 µM.

Molecule `NCc1ccc2c(c1)C1(CCN(C(=O)c3ccc(Cn4cc(Cl)cn4)o3)CC1)CO2` [Cpd 145, 1-[5-(4-chloro-pyrazol-1-ylmethyl)-furan-2-yl]carbonyl-5′-aminomethyl-spiro[piperidine-4,3′-(2H)-benzo[b]furan]] returned an IC50 of 0.34 µM.

In turn, `NCc1ccc2c(c1)C1(CCN(C(=O)c3ccc(C#Cc4ccccc4Cl)o3)CC1)CO2` [Cpd 146, 1-[5-(2-chloro-phenylethynyl)-furan-2-yl]carbonyl-5′-aminomethyl-spiro[piperidine-4,3′-(2H)-benzo[b]furan]] yielded an IC50 of 0.0052 µM.

Take `NCc1ccc2c(c1)C1(CCN(C(=O)c3ccc(CSCc4ccccc4)o3)CC1)CO2` [Cpd 147, 1-[5-(benzylthiomethyl)-furan-2-yl]carbonyl-5′-aminomethyl-spiro[piperidine-4,3′-(2H)-benzo[b]furan]]: the IC50 came to 0.066 µM.

In turn, `Cc1cc(C)nc(SCc2ccc(C(=O)N3CCC4(CC3)COc3ccc(CN)cc34)o2)n1` [Cpd 148, 1-[5-(4,6-dimethyl-pyrimidin-2-ylthiomethyl)-furan-2-yl]carbonyl-5′-aminomethyl-spiro[piperidine-4,3′-(2H)-benzo[b]furan]] registered an IC50 of 0.33 µM.
